Assay results reported in patent US7741472B2, “Polynucleotide containing a phosphate mimetic” (Roche Diagnostics Operations, Inc., priority 2005, dated 2010).
Values belong to the substance of their own block, whether it stands above or below them. Strand notation (5' to 3'): a small letter for the sugar, then the base; units joined by * are phosphorothioate-linked, units joined directly phosphodiester-linked; [ ] holds rarer units or linkages, { } end groups; capitals alone tell only the bases. [PNAc] = P=N-pPh-NAc phosphoramidate mimetic linkage (p1); {Fluorescein} = fluorescein label; d = 2'-deoxy (DNA)

Assays:
[1] = tested on: factor V DNA; test: Real time PCR of factor V DNA with modified FRET donor probes (crossing point); format: biochemical; settings: LIGHTCYCLER 1.2, 106 copies of plasmid, 200 nM FRET probes, 640 nm channel
Method: (§1) A quantitative real time PCR of factor V DNA with subsequent melting curve analysis was carried out on a LIGHTCYCLER 1.2 instrument (Roche Diagnostics GmbH) in order to analyse the effect of phosphate mimetics on hybridization. Primers were used in combination with a pair of fluorescein/LIGHTCYCLER Red 640 FRET hybridization probes. The primers and the 5′ LIGHTCYCLER Red 640 probe were kept constant. The various 3′ fluorescein probes modified on the phosphate from example 4 and the unmodified fluorescein probe as a reference were used as FRET donor probes. The effect on the crossing point which is a measure for the amplification efficiency and the effect on the melting point were evaluated.
20 μl of a PCR reaction mixture was prepared as follows for the amplification of a factor V DNA fragment.
106 copies of a plasmid which contains the factor V wild type gene and mutants (Gene Bank Accession No. M 014335)
500 nM each primers having the SEQ ID NO: 1 and 2
200 nM each FRET hybridization probes having the SEQ ID NO: 3 and 4
The LIGHTCYCLER DNA Master Hyb Probes Kit (Roche Applied Science, Cat. No. 2158825) was used for all other PCR components according to the manufacturer's instructions.
The following sequences were used as primers and probes: […]
The following temperature program was used for the amplification on the LIGHTCYCLER 1.2 (Roche Applied Science).
(§2) The real time monitoring was carried out over 45 cycles using the 2nd derivative threshold method in which the fluorescence signal was measured in a detection channel that is specific for the LIGHTCYCLER Red 640 emission (at 640 nm) and the arithmetic background correction mode was used to normalize the initial signal.
(§3) The crossing points are shown in the following table as a measure for the amplification efficiency when using different modified donor probes.

[2] = tested on: factor V wild type sequence; test: Melting curve analysis of donor probes, wild type; format: binding; settings: melting temperature of donor probe for factor V wild type sequence; in °C (unit assumed)
Method: as §1
After the amplification a melting curve analysis was carried out according to the instructions of the LIGHTCYCLER manual (Roche Applied Sciences).
(§4) The following temperature program was used:
(§5) The absolute fluorescence signals are measured as above in the 640 nm channel and subsequently the first derivative was calculated from this.
as §3

[3] = tested on: factor V mutant sequence; test: Melting curve analysis of donor probes, mutant; format: binding; settings: melting temperature of donor probe for factor V mutant sequence; in °C (unit assumed)
Method: as §1, with “LIGHTCYCLER” left out, “fluorescein/[…]” for “fluorescein/LIGHTCYCLER”, “The various 3′ fluorescein probes modified on the phosphate from example 4 and the unmodified fluorescein probe as a reference were used as FRET donor probes.” left out
After the amplification a melting curve analysis was carried out according to the instructions of the […] manual (Roche Applied Sciences).
as §4, §5

[4] = tested on: human Factor V DNA; test: Real time PCR with modified primers (crossing point); format: biochemical; settings: LIGHTCYCLER 1.2, primer combinations SEQ ID NO: 1 / SEQ ID NO: 2, 640 nm channel
Method: A quantitative real time PCR of human Factor V DNA was carried out on a LIGHTCYCLER 1.2 instrument (Roche Diagnostics GmbH) in order to analyse the effect of phosphate mimetics on primer elongation. The P═N-pPh-NAc mimetic which was introduced at different positions of a primer pair used for amplification of human Factor V DNA. The modified primers were, synthesized according to example 4. Purification was done by the Reversed Phase chromatography of example 3 in the Trityl on mode. Detritylation was performed by treating with 80% acetic acid for 20 min.
This primers were used in combination with a pair of fluorescein/LIGHTCYCLER Red 640 FRET hybridization probes according to example 6. The Fluorescein probe and the 5′ LIGHTCYCLER Red 640 probe (SEQ ID NO: 3 and 4) were kept constant. Various combinations of modified and unmodified primers were tested. As reference unmodified primers were used. The effect on the crossing point which is a measure for the amplification efficiency was evaluated.
as §2, with “which,” for “which”
The absolute fluorescence signals are measured as above in the 640 nm channel and subsequently the first derivative was calculated from this. The crossing points are shown in the following table as a measure for the amplification efficiency when using different modified primers.

[5] = Stability of dinucleotides at different temperatures and pH, reverse phase HPLC; format: physicochemical; settings: for stability: pH 7.0, 8.0 and 9.0, 24 h at rt, 1 h at 95° C.
Method: dA(P(═NSO2PhNHAc)dT was synthesized and purified according to example 1) dAdT was also synthesized according to example 1, but standard oxidizers were used (0.02 M iodine in THF).
The dimers were exposed for different times and temperatures in 10 mM Tris buffer at different pH values 7.0, 8.0, and 9.0. Samples were left at room temperature (approx. 24° C.) for 24 h or at 95° C. for 60 min respectively 16 h. 150 μL aliquots were removed before and after the experiment and 100 μL volumes were injected on the HPLC.
The decomposition was monitored by reverse phase HPLC on an analytical X-Bridge column (2.5 μm, 4.6×50 mm i.d.) with a Waters 2690 separation module. Detection was carried out with a Waters 2996 PAD Detector (260 nm). A mobile phase of 0.1 M triethylammonium acetate (pH 6.8) pumped with a 95% gradient of acetonitrile at flow rate of 1.0 ml/min was used. The destruction rate of the dimers was judged by monitoring the retention time rt of the dimer signal (Software Millenium, Waters) and determining whether additional peaks with retention times different than that, of the nucleotide dimer occur.

[6] = pH 7.0, 10 mM Tris, 1 h at 95° C. (dry oven)
[7] = pH 7.0, 10 mM Tris, 16 h at 95° C. (dry oven)
[8] = pH 7.0, 10 mM Tris, 24 h at rt (24° C.)
[9] = pH 7.0, 10 mM Tris, starting solution
[10] = pH 8.0, 10 mM Tris, 1 h at 95° C. (dry oven)
[11] = pH 8.0, 10 mM Tris, 16 h at 95° C. (dry oven)
[12] = pH 8.0, 10 mM Tris, 24 h at rt (24° C.)
[13] = pH 8.0, 10 mM Tris, starting solution
[14] = pH 9.0, 10 mM Tris, 1 h at 95° C. (dry oven)
[15] = pH 9.0, 10 mM Tris, 16 h at 95° C. (dry oven)
[16] = pH 9.0, 10 mM Tris, 24 h at rt (24° C.)
[17] = pH 9.0, 10 mM Tris, starting solution

Substance: 5′ AATACCTGTATTCCTCGCCTGTC-fluorescein-3′ (ref): unmodified fluorescein FRET donor probe SEQ ID NO: 4, used as a reference (DNA dAdAdTdAdCdCdTdGdTdAdTdTdCdCdTdCdGdCdCdTdGdTdC-{Fluorescein}) [reference compound]
Cp (crossing point, measure for the amplification efficiency) [1]: 22.11
Tm wt [2]: 64.92
Tm mt [3]: 56.98

Substance: 5′ AATACCTGTATTCCTCGCCTGTp1C fluorescein-3′: Example 4 fluorescein probe SEQ ID NO: 4; p1 is a P = N-pPh-NAc mimetic (DNA dAdAdTdAdCdCdTdGdTdAdTdTdCdCdTdCdGdCdCdTdGdT[PNAc]dC-{Fluorescein})
Cp (crossing point, measure for the amplification efficiency) [1]: 22.61
Tm wt [2]: 64.32
Tm mt [3]: 56.26

Substance: 5′ Ap1Ap1Tp1ACCTGTATp1Tp1Cp1CTCGCCTp1Gp1Tp1C-fluorescein-3′: Example 4 fluorescein probe SEQ ID NO: 4, multiply modified; p1 is a P = N-pPh-NAc mimetic (DNA dA[PNAc]dA[PNAc]dT[PNAc]dAdCdCdTdGdTdAdT[PNAc]dT[PNAc]dC[PNAc]dCdTdCdGdCdCdT[PNAc]dG[PNAc]dT[PNAc]dC-{Fluorescein})
Cp (crossing point, measure for the amplification efficiency) [1]: 22.00
Tm wt [2]: 61.40
Tm mt [3]: 52.83

Substance: 5′ GAGAGACATCGCCTCTGGGCT p1A / 5′ TGTTATCACACTGGTGCTAA: primer combination; p1 is a P = N-pPh-NAc mimetic
Cp (crossing point, measure for the amplification efficiency) [4]: 20.80

Substance: 5′ GAGAGACATCGCCTCTGGGCTA / 5′ TGTTATCACACTGGTGCTAA: unmodified primer pair SEQ ID NO: 1 and 2, used as reference (DNA 1 GAGAGACATCGCCTCTGGGCTA; DNA 2 TGTTATCACACTGGTGCTAA; unmodified DNA) [reference compound]
Cp (crossing point, measure for the amplification efficiency) [4]: 20.36

Substance: 5′ Ap1ATACCTGTATTCCTCGCCTGTC fluorescein-3′: Example 4 fluorescein probe SEQ ID NO: 4; p1 is a P = N-pPh-NAc mimetic (DNA dA[PNAc]dAdTdAdCdCdTdGdTdAdTdTdCdCdTdCdGdCdCdTdGdTdC-{Fluorescein})
Cp (crossing point, measure for the amplification efficiency) [1]: 22.51
Tm wt [2]: 64.80
Tm mt [3]: 56.80

decomposition ([5]; after 16 h at pH 7.0 and pH 8.0): started decomposing
rtHPLC (retention time of the dimer signal) [5, 6]: rtHPLC = 2.48
additional peaks (decomposition) [5, 7]: 1 new peak t = 6.2
rtHPLC (retention time of the dimer signal) [5, 7]: rtHPLC = 2.42
rtHPLC (retention time of the dimer signal) [5, 8]: rtHPLC = 2.39
rtHPLC (retention time of the dimer signal) [5, 9]: rtHPLC = 2.39
stability [5]: stable
rtHPLC (retention time of the dimer signal) [5, 10]: rtHPLC = 2.42
additional peaks (decomposition) [5, 11]: 1 new peak 6.2
rtHPLC (retention time of the dimer signal) [5, 11]: rtHPLC = 2.41
rtHPLC (retention time of the dimer signal) [5, 12]: rtHPLC = 2.38
rtHPLC (retention time of the dimer signal) [5, 13]: rtHPLC = 2.38
rtHPLC (retention time of the dimer signal) [5, 14]: rtHPLC = 2.42
rtHPLC (retention time of the dimer signal) [5, 15]: rtHPLC = 2.43
rtHPLC (retention time of the dimer signal) [5, 16]: rtHPLC = 2.41
rtHPLC (retention time of the dimer signal) [5, 17]: rtHPLC = 2.41
Substance: dAdT

decomposition ([5]; after 16 h at 95° C. at pH 7.0): started decomposing
rtHPLC (retention time of the dimer signal) [5, 6]: rtHPLC = 2.99
additional peaks (decomposition) [5, 7]: 2 new peaks t = 1.2, 2.0.
rtHPLC (retention time of the dimer signal) [5, 7]: rtHPLC = 2.99
rtHPLC (retention time of the dimer signal) [5, 8]: rtHPLC = 2.93
rtHPLC (retention time of the dimer signal) [5, 9]: rtHPLC = 2.93
stability [5]: stable
rtHPLC (retention time of the dimer signal) [5, 10]: rtHPLC = 2.92
rtHPLC (retention time of the dimer signal) [5, 11]: rtHPLC = 2.92
rtHPLC (retention time of the dimer signal) [5, 12]: rtHPLC = 2.96
rtHPLC (retention time of the dimer signal) [5, 13]: rtHPLC = 2.96
rtHPLC (retention time of the dimer signal) [5, 14]: rtHPLC = 2.95
rtHPLC (retention time of the dimer signal) [5, 15]: rtHPLC = 2.95
rtHPLC (retention time of the dimer signal) [5, 16]: rtHPLC = 2.92
rtHPLC (retention time of the dimer signal) [5, 17]: rtHPLC = 2.92
Substance: dA(P(═NSO2PhNHAc)dT [dA(P(=NSO2PhNHAc)dT]

Substance: 5′ AATACCTGTATTp1Cp1Cp1Tp1Cp1Gp1Cp1Cp1Tp1Gp1Tp1C-fluorescein-3′: Example 4 fluorescein probe SEQ ID NO: 4, multiply modified; p1 is a P = N-pPh-NAc mimetic (DNA dAdAdTdAdCdCdTdGdTdAdTdT[PNAc]dC[PNAc]dC[PNAc]dT[PNAc]dC[PNAc]dG[PNAc]dC[PNAc]dC[PNAc]dT[PNAc]dG[PNAc]dT[PNAc]dC-{Fluorescein})
Cp (crossing point, measure for the amplification efficiency) [1]: 21.91
Tm wt [2]: 60.74
Tm mt [3]: 52.14

Substance: 5′ AATACCTGp1TATTCCTCp1GCCTGTC-fluorescein-3′: Example 4 fluorescein probe SEQ ID NO: 4, two-fold modified; p1 is a P = N-pPh-NAc mimetic (DNA dAdAdTdAdCdCdTdG[PNAc]dTdAdTdTdCdCdTdC[PNAc]dGdCdCdTdGdTdC-{Fluorescein})
Cp (crossing point, measure for the amplification efficiency) [1]: 22.26
Tm wt [2]: 64.28
Tm mt [3]: 55.89

Substance: 5′ Ap1Ap1Tp1Ap1Cp1Cp1Tp1Gp1Tp1Ap1Tp1TCCTCGCCTGTC-fluorescein-3′: Example 4 fluorescein probe SEQ ID NO: 4, multiply modified; p1 is a P = N-pPh-NAc mimetic (DNA dA[PNAc]dA[PNAc]dT[PNAc]dA[PNAc]dC[PNAc]dC[PNAc]dT[PNAc]dG[PNAc]dT[PNAc]dA[PNAc]dT[PNAc]dTdCdCdTdCdGdCdCdTdGdTdC-{Fluorescein})
Cp (crossing point, measure for the amplification efficiency) [1]: 21.40
Tm wt [2]: 60.69
Tm mt [3]: 52.19
